Source: patent US20220401408A1, “COMPOSITIONS AND METHODS FOR RESCUING RETINAL AND CHOROIDAL STRUCTURE AND FUNCTION” (AUCKLAND UNISERVICES LIMITED, priority 2019, published 2022)

Tested on: GFAP, Connexin43, Iba-1
Assay: Immunohistochemical labelling of GFAP, Iba-1 and Connexin43 in hyperglycemic rat retina
Assay type: in vivo, SD rats (spontaneously hyperglycemic strain)
Conditions: dosed daily for 14 days, 8 weeks of age
Procedure: Ten rats per group were the selected (10 normal SD and 10 hyperglycemic) grown to 5 weeks of age and assessed using OCT and ERG. The hyperglycemic rat group was then split into two subgroups of five, with one subgroup fed tonabersat once daily for 14 days from weeks 5 to 7 at a low dose level of 0.28 mg/kg in 0.5 g peanut butter, with the other subgroup fed 0.5 g peanut butter only. All animals were assessed again using ERG and OCT at 8 weeks of age before euthanizing animals and removing the eyes for immunohistochemical analysis. Data groups were randomized prior to the statistical comparison. In summary, normal SD and hyperglycemic rats were analyzed with OCT and ERG at 5 weeks of age; the hyperglycemic rats were then split into two groups and fed the vehicle or tonabersat for 14 days during weeks 6 and 7 of age. At week 8, animals were again assessed with ERG and OCT and tissues collected for immunohistochemical analysis. Four tonabersat-treated rats were, however, left until 3 months of age before final ERG and OCT and tissue collection.
Tissue Collection and Processing—At the end of the final OCT recording rats was deeply anesthetized using a combination of ketamine (75 mg/kg, Parnell Technologies, New Zealand) and domitor (0.5 mg/kg, Pfizer, New Zealand). Animals were perfused transcardially with saline for 2-3 min followed by 30 min perfusion with 4% paraformaldehyde in a 0.1 M phosphate buffer, pH 7.4 (PB). Eyes were dissected from the orbit and the eyecups further immersion fixed in 4% paraformaldehyde, 30 min before washing in PB. Tissues were then cryo-protected by taking them though 10% and 20% sucrose/PB solutions at room temperature for 30 min each, before soaking in 30% sucrose/PB at 4° C. overnight. The tissue was then embedded in optimum cutting temperature compound (Sakura Finetek, Torrance, USA) for cryosectioning (16 μm section thickness) in the vertical plane using a Leica CM3050 S cryostat (Leica, Germany). Sections were collected on Superfrost Plus slides (Labserv, New Zealand) for immunohistochemical labelling. For the DR animals we collected spleen, pancreas, liver, heart and kidneys from randomly selected vehicle-injected animals (see supplementary information).
Immunohistochemical Labelling of Tissue Sections—Frozen tissue sections were air-dried at room temperature for 10-15 min and washed with 0.1 M PB. Sections were encircled with a PAP pen (Invitrogen, New Zealand) to form incubation wells and blocked with 6% normal goat serum or donkey serum (Invitrogen, USA), 1% bovine serum albumin (BSA) and 0.5% Triton X-100 in 0.1 M PB for 1 hour at room temperature. […]

[1] = significantly less than untreated, p<0.001

CC(=O)c1ccc2c(c1)[C@H](NC(=O)c1ccc(F)c(Cl)c1)[C@H](O)C(C)(C)O2 [tonabersat, N-[(3S,4S)-6-acetyl-3-hydroxy-2,2-dimethyl-3,4-dihydrochromen-4-yl]-3-chloro-4-fluorobenzamide]
inflammation (labeling for GFAP, Iba-1, Connexin43): reduced inflammation
Connexin43 labelling, quantification [1]: recovering to normal
GFAP labelling, quantification [1]: recovering to normal
Iba-1 labelling, quantification [1]: recovering to normal
